Values quoted from earlier work in patent US20230106535A1, “TECHNIQUES FOR DETERMINING CALCIMIMETIC DRUG ACTIVITY” (Fresenius Medical Care Holdings, Inc., priority 2021, published 2023).

How the values were obtained:
PTH = conditions: n=343, Source E
[1] = tested on: iPTH, serum ionized Ca, phosphate
[2] = healthy subjects; plasma concentration declines tri-exponentially
[3] = not given; remark: listed apart in the source
corrected serum calcium = conditions: clinical studies
[4] = long term studies, within 12 weeks

## C[C@@H](NCCCc1cccc(C(F)(F)F)c1)c1cccc2ccccc12 [cinacalcet]
PTH
  patients with PTH reduction >30% from baseline, clinical results: 57.7%
  patients with PTH reduction >50% from baseline, clinical results: 40.2%

## CC(=O)N[C@H](CSSC[C@H](N)C(=O)O)C(=O)N[C@H](C)C(=O)N[C@H](CCCNC(=N)N)C(=O)N[C@H](CCCNC(=N)N)C(=O)N[C@H](CCCNC(=N)N)C(=O)N[C@H](C)C(=O)N[C@H](CCCNC(=N)N)C(N)=O [etelcalcetide]
[1]; HD patients, after a 60 mg administration
  highest changes in Ca concentration: around 15%
[1]; HD patients, after administration, dose-dependent
  time to decline of iCa concentration: ≤ 10 h
[1]; after a single dose
  time to lowering of intact PTH (iPTH): ≤ 30 min
[1]; after a single dose administration
  time to iCa plateau: 56 h
[1]; [4]
  iCa decline before reaching a plateau: around 10%
  phosphate decline before reaching a plateau: ~5%
[1]; post single dose administration
  time to plateau in iPTH: 1 h
[1]; post-administration
  time to decrease in phosphate: about 4 hours
[1]; single dose
  time after which iCa gradually decreases: about 18 hours
  time phosphate remains low: about 4 days
  time serum ionized Ca (iCa) remains stable: 8 h
faster
  rate of conversion from SAPC to etelcalcetide relative to conversion of etelcalcetide to SAPC: roughly 16 fold
slower
  rate of conversion from SAPC to etelcalcetide relative to dialytic rate constant: approximately 200 fold
Within 15 minutes, almost all cleared as intact etelcalcetide
  etelcalcetide dose cleared by HD: approximately 70%
[2]
  terminal half-life: around 20 hours
[3]; clinical studies, multiple 2.5 mg or 5 mg administrations after every HD session
  time to steady state of etelcalcetide plasma concentration: about 4 weeks
[3]; human, in vivo
  biotransformation resulting in (reversible) formation of SAPC: roughly 60%
  etelcalcetide undergoing biotransformation: approximately 90%
[3]; patients on intermittent HD
  half-life: ~50 days
Corrected serum calcium
  patients with at least one corrected calcium value below 8.3 mg/dl: 79%
  patients with at least one corrected serum calcium value below 7 mg/dl: around 7.6%
